In publication PMC12260505, “First-in-Human Phase I/IIa Study of the First-in-Class CDK2/4/6 Inhibitor PF-06873600 Alone or with Endocrine Therapy in Patients with Breast Cancer” (Clinical Cancer Research, 2025):

Key:
phosphorylated Rb (pRb) = experiment: IHC of pRb (H-score) in paired tumor biopsies; type: in vivo, human
Experimental: The pharmacodynamic effects of PF-06873600 were assessed by IHC staining of pRb and Ki67 in tumor biopsy samples collected at screening and day 1 of cycle 2 (4 hours after dose). Immunostaining was performed on […] formalin-fixed, paraffin-embedded tissue sections using rabbit monoclonal anti-Rb (Ser807/811) antibody (clone D20B12, Cell Signaling Technology) and rabbit monoclonal anti-Ki67 antibody (Ventana Medical Systems), respectively. pRb and Ki67 expressions were assessed semiquantitatively by a board-certified pathologist. Scoring was performed using the percentage of cells positive for Ki67 or a histo-score (H-score) methodology for pRb based on staining intensity and the percentage of positive cells. Intensity was scored as 0, none; 1, weak; 2, moderate; or 3, strong, and H-scores were calculated as follows: H-score = [fraction of cells with intensity grade 1 (%)] + [fraction of cells with intensity grade 2 (%) × 2] + [fraction of cells with intensity grade 3 (%) × 3].

CDK4 = target: CDK4; parameters: method as in PMID 34110834; settings: cited from earlier work

C[C@@]1(O)CCC[C@H]1n1c(=O)c(C(F)F)cc2cnc(NC3CCN(S(C)(=O)=O)CC3)nc21 [PF-06873600]
Median change in pRb H-score from baseline (phosphorylated Rb (pRb); IR 25 mg twice daily monotherapy, cycle 2 day 1, HR+/HER2− mBC tumor biopsies): –16.5% | Median percentage change in pRb H-score from baseline (phosphorylated Rb (pRb); IR 25 mg twice daily/fulvestrant combination, cycle 2 day 1): –31.9% | Ki (CDK4): 1.25 nM
